In patent US10894037B2, “Inhibitors of bacterial two component signal transduction system and uses thereof” (priority 2017, dated 2021):

How the values were obtained:
Assay type in all cases: binding
PmrA-DNA complex [1] = target: PmrA-DNA complex (Klebsiella pneumoniae, UniProt W9BNR5); experiment: Fluorescence polarization (FP) assay of inhibition of PmrA-DNA complex formation
Method: (§1) Fluorescence Polarization (FP) Measurements
(§2) Compounds, E1-E5, were purchased from InterBioScreen (Moscow, Russia) (E1: STOCK1S-95047; E2: STOCK1N-13224; E3: STOCK1N-16691; E4: STOCK 1 S-43938; E5: STOCK1S-55283), and the purity are over 90% examined by NMR. The oligonucleotides (5′-[…]-3′, SEQ ID NO: 2) labeled with 6-carboxyfluorescein (6-FAM) at the 5′-position, was dissolved in 10 mM sodium phosphate and 15 mM NaCl pH 7.0 for fluorescence polarization experiments. About 10 μl activated PmrA (prepared in 10 mM sodium phosphate and 15 mM NaCl at pH7.0) was first added into the well of ELISA plate. Then, 1 μl of serial diluted inhibitors, E1-E5, (prepared in the sample buffer of activated PmrA) were mixed with the PmrA (final concentration Of 30 μM) to reach the interested concentrations and incubated at 25° C. for 10 mins. Subsequently, 9 μl of 6-FAM-labeled DNA (final concentration of 10 nM) was added into the reaction, incubating at 25° C. for another 10 mins. Reactions were measured 3 times by use of a SpectraMax Paradigm plate reader (Molecular Devices, CA, USA) with excitation wavelength 485 nm and emission wavelength 535 nm. The inhibition % was derived according to the following equation:
(§3) [formula] in which (D), (P+D), and (P+I+D) are the polarization intensity of DNA alone, PmrA with DNA, and PmrA mixed with inhibitor then incubated with DNA, respectively.
(§4) Fluorescence polarization (FP) was first employed to access the inhibitory abilities of E1-E5 against the formation of PmrA-DNA complex in accordance with procedures described in the section of “Materials and Methods.” Results are depicted in FIG. 1, panels E and F, and Table 1.

PmrA-DNA complex [2] = target: PmrA-DNA complex (Klebsiella pneumoniae, UniProt W9BNR5, I220D/W181G); experiment: as above; settings: read-out: inhibition of PmrA binding to DNA (PmrA-DNA complex formation)
Method: as §1, §2, §3, §4

[3] = target: T1, PmrAC (C-terminal domain of PmrA) (Klebsiella pneumoniae, UniProt W9BNR5); experiment: Isothermal titration calorimetry (ITC)
T1 sequence (W9BNR5 121-223): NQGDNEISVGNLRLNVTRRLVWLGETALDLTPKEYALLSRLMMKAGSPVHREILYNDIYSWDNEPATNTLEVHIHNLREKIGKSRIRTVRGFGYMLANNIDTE
Method: Isothermal Titration Calorimetry (ITC)
The binding affinities of PmrAC with compound, E1, was estimated by ITC using a MicroCal iTC200 microcalorimeter. The sample of PmrAC was prepared in reaction buffer (20 mM sodium phosphate, 100 mM NaCl, pH6.0). Compounds were also prepared in reaction buffer (E1=0.4 mM) and titrated into PmrAC (45 μM) at 25° C. The background heat generated from compound to buffer titration was subtracted, and the corrected heat form the binding reaction of PmrAC to E1 was used to derive the association constant (Ka), the enthalpy of binding (ΔH), the change in Gibbs free energy (ΔG), and the entropy changes ([…]) at 298K. All the data were analyzed by using Origin ITC Analysis (MicroCal Software, Northampton, Mass., USA).
(§5) The binding affinity of E1 toward PmrAC (C-terminal domain of PmrA) was further assessed by Isothermal titration calorimetry (ITC) and Bio-layer interferometer (BLI) at the condition described previously (Lou et al., Nature communication 2015, 6, 8838.) (sodium phosphate buffer pH6.0). According to the ITC results, the interaction of E1 with PmrAC appeared to be an exothermic reaction, with a change in enthalpy (ΔH) of −21.4 kcal/mol, change in entropy (AS) of −45.6 […], and N value of 1.09 (FIG. 2, panel G).

[4] = target: T1, PmrAC (C-terminal domain of PmrA); experiment: Bio-layer interferometry (BLI)
Method: Bio-Layer Interferometry (BLI)
The BLI kinetics were obtained by using the ForteBio Octet RED96 instrument (ForteBio, Pall Life Sciences). Recombinant PmrAC carrying C-terminal 6× His tag was immobilized on the HIS1K biosensor in the reaction buffer containing 20 mM sodium phosphate, 100 mM NaCl, pH 6.0 at 25° C. for 180 s prior to kinetic experiment. For the association, the preloading biosensor was exposed to different concentration of E1 (0-37.5 μM) for the period of 300 s. Following the dissociation step, the sensor was subjected to the reaction buffer for 300 s. Kinetic constants, including Kon (association constant, M^−1s^−1) and Koff (dissociation constant, s^−1), were obtained by fitting the reaction model 1:1 kinetics to the reference-subtracted data. The equilibrium dissociation (KD) was calculated as the ratio of Koff to Kon. All calculation was determined using Data Analysis 7 software (ForteBio, Pall Life Sciences).
as §5

[5] = target: T1, PmrAC (C-terminal domain of PmrA); experiment: NMR (2D 1H-15N TROSY-HSQC) compound titration for dissociation constant
Method: NMR Spectroscopy and Compound Titrations
The preparations of NMR samples were as described previously (Mscielag and Goldschmidt, Expert opinion on investigational drugs 2000, 9, 2351-2369.). Briefly, the activated and inactivated PmrA (0.3 ml, 0.25 mM) were prepared in pH8.0 buffer (20 mM Tris and 100 mM NaCl) with or without BeF3^− activation. PmrAC (0.3 ml, 0.25 mM) was prepared in pH8.0 buffer (20 mM Tris and 100 mM NaCl). All the protein solutions were further loaded in Shigemi NMR tubes (Shigemi Inc.). NMR experiments for activated/inactivated PmrA and PmrAC were conducted at 310 and 298K on Brucker AVANCE 600 or 800 NMR spectrometers (Bruker, Karlsruhe, Germany) equipped with a triple-resonance cryoprobe including a shielded z-gradient. The hetero-nuclear NMR experiments for backbone assignments were performed as described previously in a review article (Garcia-Calderon et al., Journal of Bacteriology 2007, 189, 6635-6644). All the acquired NMR spectra were processed by using NMRPipe (Chen and Groisman, Annual review of microbiology 2013, 67, 83-112) and analyzed with NMRViewJ8.0a.22 (Wosten et al., Molecular microbiology 2006, 60, 39-50). […] The chemical shift changes were calculated through the equation Δδ=[(ΔδNH)^2+(0.17×ΔδN)^2]^0.5, in which ΔδNH and ΔδN are the chemical shift differences for ^1HN and ^15N, respectively. […]

Chain of PmrA-DNA complex (Klebsiella pneumoniae, UniProt W9BNR5, I220D/W181G) (W9BNR5 whole entry I220D/W181G, one chain of several): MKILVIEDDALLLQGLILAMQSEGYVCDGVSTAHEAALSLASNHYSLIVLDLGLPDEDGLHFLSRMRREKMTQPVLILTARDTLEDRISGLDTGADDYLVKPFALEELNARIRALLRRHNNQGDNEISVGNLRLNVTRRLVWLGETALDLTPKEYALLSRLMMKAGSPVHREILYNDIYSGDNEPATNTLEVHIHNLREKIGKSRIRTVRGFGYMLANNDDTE
Chain of PmrA-DNA complex (Klebsiella pneumoniae, UniProt W9BNR5) (W9BNR5 whole entry I220D/W181G, one chain of several): as above

SMILES | IC50 (PmrA-DNA complex [1]) [µM] | inhibition at 50 µM (PmrA-DNA complex [2]) [%] | Kd [3] [µM] | Kd [4] [µM] | koff ([4]; read-out: Koff rate) [s⁻¹] | kon ([4]; read-out: Kon rate) [M⁻¹ s⁻¹] | Kd [5] [µM]
O=S(=O)(O)CC1CSSCC(CS(=O)(=O)O)SS1 (centres unmarked) [Compound E3] | 100 ± 2.5 | 27.4 ± 1.8 |  |  |  |  | 
O=S(=O)(O)c1ccc(-c2ncc(-c3ccc(-c4cnc(-c5ccc(S(=O)(=O)O)cc5)o4)cc3)o2)cc1 [Compound E1] | 10.2 ± 2.6 | 70.2 ± 3.2 | 1.7 | 2.6 ± 0.1 | 0.251 | 94900 | 126 ± 34.6
O=S(=O)(O)CCOCC1CSSCC(COCCS(=O)(=O)O)SS1 (centres unmarked) [Compound E2] | 42.5 ± 2.9 | 55.9 ± 2.7 |  |  |  |  | 
